Eight compounds from patent US20200032313A1 (SANYO CHEMICAL INDUSTRIES, LTD., priority 2017, published 2020) can be followed below.

Where two headings read alike, the source gives them in different places.

Holding throughout (format): cell-based
Experiment [1] concerns acid phosphatase-expressing Candida boidinii. The note with it: 8 hours culturing after addition. The protocol:
Candida boidinii was transformed and acid phosphatase-expressing microorganisms were produced based on a method described in a known document (Regulation and evaluation of five methanol-inducible promoters in the methylotrophic yeast Candida boidinii, H. Yurimoto et al., Biochimica et Biophysica Acta, 1493, 2000, pp. 56-63). The acid phosphatase-expressing microorganisms were inoculated using a platinum loop into BMGY broth, and were shake-cultured at 200 rpm at 30° C. for 15 hours. Then, the thus-obtained broth was resuspended in 125-ml BMGY broth to a final OD of 0.1 OD/ml. Further, the resuspended broth was continued to be shake-cultured at 1100 rpm at 30° C. for about 17 hours until OD was 2 to 5. When OD was 2 to 5, methanol was added to a concentration of 2 v/v %, followed by culturing at 1100 rpm at 30° C. for 2 hours.
Two hours later, the surfactant described in Table 3 was added to the broth in the weight described in Table 3, and the broth was cultured at 1100 rpm at 30° C. for 8 hours. Eight hours later, the broth was sampled for measuring the optical density (optical density at the end of culturing), and was subjected to centrifugation using a centrifuge to separate bacteria and the supernatant from the broth. Then, the supernatant and the bacteria were collected.
(§1) The optical density of the broth containing the microorganisms collected by sampling was measured in a quartz cell (light path of 1 cm) using a spectrophotometer (UV-1700, Shimadzu Corporation).
(§2) The broth was centrifuged at 1500 rpm at 4° C. for 5 minutes, and the supernatant was discarded. The precipitate was resuspended in a saline solution in an amount equal to the amount of the sample solution, and was diluted in the saline solution to obtain an appropriate absorbance (0.1 to 0.8). Then, the absorbance at 600 nm was measured. The optical density of the broth was calculated using the following mathematical formula (1).
(§3) Broth optical density(OD)=(Absorbance of diluted broth at 600 nm)×dilution factor of broth (Mathematical formula 1)

The test system of experiment [2] is luciferase-expressing Pichia pastoris. The note with it: 8 hours. On the procedure: (§4) Transformation was performed using Pichia pastoris distributed by Biotechnology Center, National Institute of Technology and Evaluation, whereby luciferase-expressing microorganisms were produced. A vector pPICZ a (Thermo Fisher Scientific) was digested with XhoI and XbaI, and a synthetic (synthesized by Thermo Fisher Scientific on commission) luciferase gene having an XhoI cut site at one end and an XbaI cut site at the other end was inserted into the vector. The microorganisms were transformed by the luciferase gene-inserted pPICZ a according to the method described in an instruction manual of pPICZ a. The luciferase-expressing microorganisms were inoculated using a platinum loop into BMGY broth, and were shake-cultured at 200 rpm at 30° C. for 15 hours. Then, the thus-obtained broth was resuspended in 125-ml BMGY broth (yeast extract 1 wt % (Difco), bacto peptone 2 wt % (Difco), yeast nitrogen base w/o amino acid 1.34 wt % (Difco), glucose 2 wt %, and 100 mM potassium hydrogen phosphate; pH: 6.0) to a final OD of 0.1 OD/ml. Further, the resuspended broth was continued to be shake-cultured at 1100 rpm at 30° C. for about 17 hours until OD was 20 to 30. When OD was 20 to 30, the broth was centrifuged (1500 g, 10 min), and resuspended in 125-ml BMMY broth, followed by culturing at 1100 rpm at 30° C. for 2 hours.
(§5) Two hours later, the surfactant described in Table 2 was added to the broth in the amount (wt %) described in Table 2, and the broth was cultured at 1100 rpm at 30° C. for 8 hours. Subsequently, the broth was sampled for measuring the optical density (optical density at the end of culturing) and for measuring the secretion efficiency. Then, these samples were subjected to centrifugation using a centrifuge to separate bacteria and the supernatant from the broth. Then, the supernatant and the bacteria were collected.
The broth obtained in each of Examples 1 to 22 and Comparative Examples 1 and 2 was 10 to 1000-fold diluted in a 0.2 M Tris-HCl buffer (pH 7.4), and 20 μl of the dilution was mixed with 60 μl of a luciferin solution described below to obtain a sample. The emission intensity of the sample was measured using a luminometer under the following conditions, and the measured emission intensity was substituted into the following formula. The resulting value was regarded as the luciferase activity of the secreted and produced useful substance.
Luminometer: “Glomax Navigator” available from Promega Corporation Luciferin solution: product of New England Biolabs Japan Inc. Measurement temperature: 25° C. Detector: emission detector Detection wavelength: 350 to 700 nm
(Luciferase activity of secreted and produced useful substance)=(Emission intensity)×dilution factor/(optical density at the end of culturing)
The bacteria obtained in each of Examples 1 to 22 and Comparative Examples 1 and 2 were mixed with a 0.2 M Tris-HCl buffer (pH 7.4) in an amount of 200 μl that is equal to the amount of the removed supernatant, followed by centrifugation, whereby the bacteria were washed. The washed bacteria were resuspended in a 0.2 M Tris-HCl buffer (pH 7.4) in an amount of 200 μl that is equal to the amount of the washed supernatant, and 10 to 1000-fold diluted in a 0.2 M Tris-HCl buffer (pH 7.4). The resulting dilution was used as a sample for measuring the luciferase activity on the bacterial surface.
Then, 20 μl of the sample for measuring the luciferase activity on the bacterial surface was mixed with 60 μl of the luciferin solution to obtain a sample. The emission intensity of the sample was measured under the same conditions as for “Measurement of luciferase activity of secreted and produced useful substance”, and the measured emission intensity was substituted into the following formula. The resulting value was regarded as the luciferase activity of the useful substance remaining on the bacterial surface. […]

For experiment [3] the test system is unchanged. The note with it: 8 hours culturing after addition. On the procedure:
as §4, §5, §1, §2, §3

Setting [4] is: surfactant 0.03 wt % of broth, Examples 24, 27-33.
Where [5] appears, read: surfactant 0.003 wt % of broth, Example 12.
The mark [6] stands for this setting: surfactant 0.03 wt % of broth, Examples 13, 16-22.
[7] abbreviates: surfactant 0.3 wt % of broth, Example 14.
The mark [8] stands for this setting: surfactant 3 wt % of broth, Example 15.

With `CCCCCCCCCCCCNCCC(=O)O`, the “Optical density (OD) of broth at the end of culturing” value (shortened to “Optical density (OD) of broth”) was determined as 5.1 OD in experiment [1] (surfactant 0.003 wt % of broth, Example 23); 6.0 OD in experiment [1] (setting [4]); 2.7 OD in experiment [1] (surfactant 0.3 wt % of broth, Example 25); 2.7 OD in experiment [1] (surfactant 3 wt % of broth, Example 26); 22.2 OD in experiment [3] (setting [5]); 21.1 OD in experiment [3] (setting [6]). Also, the “Optical density (OD) of broth” value in experiment [3] (setting [7]) was found to be 18.1 OD; in experiment [3] (setting [8]) it was 10.5 OD. In addition, the “Secretion efficiency (%)” value in experiment [2] (setting [5]) worked out at 64%; in experiment [2] (setting [6]), 80%; in experiment [2] (setting [7]), 84%; in experiment [2] (setting [8]) it was 67%.
Regarding `CCCCCCCCCCCC[N+](C)(C)CCCS(=O)(=O)O.[OH-]` [Surfactant (A3-3), dodecyldimethyl(3-sulfopropyl)ammonium hydroxide], the “Optical density (OD) of broth” value in experiment [1] (setting [4]) stood at 8.07 OD; in experiment [3] (setting [6]), 27.6 OD. Besides, in experiment [2] (setting [6]), the “Secretion efficiency (%)” value is 75%.
The corresponding values for “sodium polyoxyethylene (average 2.5 mol adduct) lauryl ether sulfate [Surfactant (A1-1)]” are 5.77 OD, 26.8 OD and 66%.
The corresponding values for `CCCCCCCCCCCC[N+](C)(C)C.[Cl-]` [Surfactant (A2-1), lauryl trimethyl ammonium chloride] are 3.94 OD, 15.8 OD and 88%.
Regarding “sodium (2-dodecylamino)ethanesulfonate [Surfactant (A3-1)]”, the entries for the “Optical density (OD) of broth” value in experiment [1] (setting [4]) and in experiment [3] (setting [6]) were 5.7 OD and 27.0 OD, respectively. Moreover, in experiment [2] (setting [6]), the “Secretion efficiency (%)” value is 62%.
Regarding “sodium polyoxyethylene (average 3 mol adduct) lauryl ether acetate [Surfactant (A1-2)]”, the “Optical density (OD) of broth” value in experiment [1] (setting [4]) is on record as 5.68 OD; in experiment [3] (setting [6]), 29.1 OD. Also, in experiment [2] (setting [6]), the “Secretion efficiency (%)” value was 64%.
Take `CCCCCCCCCCCC[N+](C)(C)CC(=O)[O-]` [Surfactant (A3-5), betaine lauryldimethylaminoacetate]: the “Optical density (OD) of broth” value in experiment [1] (setting [4]) amounted to 7.33 OD; in experiment [3] (setting [6]), 26.1 OD. Further, in experiment [2] (setting [6]), the “Secretion efficiency (%)” value was 90%.
As to `CCCCCCCCCCCCCCCCOP(=O)([O-])OCC[N+](C)(C)C` [Surfactant (A3-4), miltefosine, reference compound], the “Optical density (OD) of broth” value is reported as 7.91 OD in experiment [1] (setting [4]) and 30.7 OD in experiment [3] (setting [6]). For the same compound, in experiment [2] (setting [6]), the “Secretion efficiency (%)” value worked out at 66%.
